Legend:
[1] = system: DPX2 cells; conditions: for DPX2 Viability @ 6.25 μM: 24 h; for DPX2 Viability @ 25 μM: human
[2] = biological target: T1, E. coli WT RNAP (Escherichia coli, UniProt P0A8V2); assay: biochemical
T1 construct: made in house

[3] = system: VERO cells (ATCC CRL-81); assay: Vero cell toxicity; format: cell-based; conditions: Chlorocebus sabaeus, Vero; 72 hours exposure
Protocol: Cytotoxicity for a mammalian cell line was determined by exposing VERO cells (ATCC CRL-81) to serial dilutions of test compounds for 72 hours, followed by addition of resazurin and measurement of fluorescence after 4 hours incubation (Choules, et al., Antimnicrob. Agents Chemother. 2019, 63, e02204-02218).

[4] = biological target: T2, E. coli S531L (RIF^R) RNAP (Escherichia coli, UniProt P0A8V2, S531L); assay: biochemical
T2 construct: made in house

[5] = biological target: T3, E. coli D516V (RIF^R) RNAP (Escherichia coli, UniProt P0A8V2, D516V); assay: biochemical
T3 construct: made in house

[6] = system: M. tuberculosis H37Rv; assay: Minimum bactericidal concentration (MBC, CFU Assay); format: cell-based, Mycobacterium tuberculosis; conditions: for MBC99 Day 7 (CFU Assay) MBC99 Rel to RMP: CFU Assay MBC99 relative to rifampin (RMP = 1); for MBC: Mycobacterium tuberculosis, 168 h, Day 7, M. tuberculosis H37Rv, ≥99% reduction in colony forming units, read-out: MBC99 Day 7 (CFU Assay) MBC99
[7] = system: MTB H37Rv ATCC 27294; assay: MIC, microplate Alamar Blue assay (MABA); format: cell-based, Mycobacterium tuberculosis; conditions: for MIC / MIC90: Mycobacterium tuberculosis, MTB H37Rv ATCC 27294, microplate Alamar Blue assay, lowest concentration giving ≥90% reduction in fluorescence; for MIC: read-out: MIC90 MABA

| Compound | DPX2 Viability @ 6.25 μM [1] [%] | DPX2 Viability @ 25 μM [1] [%] | IC50 [2] [µM] | IC50 [3] [µM] | IC50 [4] [µM] | IC50 [5] [µM] | MBC99 Day 7 (CFU Assay) MBC99 Rel to RMP [6] | MBC [6] [µM] | MIC90 MABA Rel to RMP [7] | MIC [7] [µM] | MBC better than that of rifampin [6] [fold] | MIC90 [7] [µM] |
| --- | --- | --- | --- | --- | --- | --- | --- | --- | --- | --- | --- | --- |
| CO[C@H]1/C=C/O[C@@]2(C)Oc3c(C)c(O)c4c(=O)c(c5oc6cccc(OCCCCN7CCNCC7)c6nc-5c4c3C2=O)NC(=O)/C(C)=C\C=C\[C@H](C)[C@H](O)[C@@H](C)[C@@H](O)[C@@H](C)[C@H](OC(C)=O)[C@@H]1C [Compound 5d, (7S,9E,11S,12R,13S,14R,15R,16R,17S,18S,19E,21Z)-2,15,17-Trihydroxy-11-methoxy-3,7,12,14,16,18,22-heptamethyl-6,23,37-trioxo-32-[4-(piperazin-1-yl)butoxy]-8,27,38-trioxa-24,34-diazahexacyclo[23.11.1.1^4,7.0^5,36.0^26,35.0^28,33]octatriaconta-1(36)2,4,9,19,21,25,28,30,32,34-undecaen-13-yl acetate] | 102 | 59 | 0.006 | > 8 | 440 | 29 |  |  |  |  |  |  |
| CO[C@H]1/C=C/O[C@@]2(C)Oc3c(C)c(O)c4c(=O)c(c5oc6cccc(OCc7cccc(CN8CCN(C(=O)Cn9ccnc9)CC8)c7)c6nc-5c4c3C2=O)NC(=O)/C(C)=C\C=C\[C@H](C)[C@H](O)[C@@H](C)[C@@H](O)[C@@H](C)[C@H](OC(C)=O)[C@@H]1C [Compound 11e, (7S,9E,11S,12R,13S,14R,15R,16R,17S,18S,19E,21Z)-2,15,17-Trihydroxy-32-{[3-({4-[2-(1H-imidazol-1-yl)acetyl]piperazin-1-yl}methyl)phenyl]methoxy}-11-methoxy-3,7,12,14,16,18,22-heptamethyl-6,23,37-trioxo-8,27,38-trioxa-24,34-diazahexacyclo[23.11.1.1^4,7.0^5,36.0^26,35.0^28,33]octatriaconta-1(36)2,4,9,19,21,25,28,30,32,34-undecaen-13-yl acetate] | 105 | 96 |  | > 8 |  |  | 0.15 | 0.02 | 0.93 | 0.048 |  |  |
| CO[C@H]1/C=C/O[C@@]2(C)Oc3c(C)c(O)c4c(=O)c(c5oc6cc(N7CCN(CC(C)C)CC7)cc(OCc7ccc(CN8CCNCC8)cc7)c6nc-5c4c3C2=O)NC(=O)/C(C)=C\C=C\[C@H](C)[C@H](O)[C@@H](C)[C@@H](O)[C@@H](C)[C@H](OC(C)=O)[C@@H]1C [Compound 17b, (7S,9E,11S,12R,13S,14R,15R,16R,17S,18S,19E,21Z)-2,15,17-Trihydroxy-11-methoxy-3,7,12,14,16,18,22-heptamethyl-30-[4-(2-methylpropyl)piperazin-1-yl]-6,23,37-trioxo-32-({4-[(piperazin-1-yl)methyl]phenyl}methoxy)-8,27,38-trioxa-24,34-diazahexacyclo[23.11.1.1^4,7.0^5,36.0^26,35.0^28,33]octatriaconta-1(36)2,4,9,19,21,25,28,30,32,34-undecaen-13-yl acetate] | 109 | 45 |  | 7.9 |  |  | 0.15 | 0.02 | 0.24 | < 0.016 | ~5 |  |
| CO[C@H]1/C=C/O[C@@]2(C)Oc3c(C)c(O)c4c(=O)c(c5oc6cc(N7CCN(C(=O)c8cccc(-n9ccnc9)c8)CC7)cc(C)c6nc-5c4c3C2=O)NC(=O)/C(C)=C\C=C\[C@H](C)[C@H](O)[C@@H](C)[C@@H](O)[C@@H](C)[C@H](OC(C)=O)[C@@H]1C [Compound 29a, (7S,9E,11S,12R,13S,14R,15R,16R,17S,18S,19E,21Z)-2,15,17-Trihydroxy-30-{4-[3-(1H-imidazol-1-yl)benzoyl]piperazin-1-yl}-11-methoxy-3,7,12,14,16,18,22,32-octamethyl-6,23,37-trioxo-8,27,38-trioxa-24,34-diazahexacyclo[23.11.1.1^4,7.0^5,36.0^26,35.0^28,33]octatriaconta-1(36)2,4,9,19,21,25,28,30,32,34-undecaen-13-yl acetate] |  | 149 |  | > 10 |  |  | 0.15 | 0.02 | 1.33 |  |  | 0.036 |
| CO[C@H]1/C=C/O[C@@]2(C)Oc3c(C)c(O)c4c(=O)c(c5oc6cc(N7CCN(CCCO[C@@H]8COc9nc([N+](=O)[O-])cn9C8)CC7)cc(C)c6nc-5c4c3C2=O)NC(=O)/C(C)=C\C=C\[C@H](C)[C@H](O)[C@@H](C)[C@@H](O)[C@@H](C)[C@H](OC(C)=O)[C@@H]1C [Compound 29d, (7S,9E,11S,12R,13S,14R,15R,16R,17S,18S,19E,21Z)-2,15,17-Trihydroxy-11-methoxy-3,7,12,14,16,18,22,32-octamethyl-30-[4-(3-{[(6S)-2-nitro-5H,6H,7H-imidazo[2,1-b][1,3]oxazin-6-yl]oxy}propyl)piperazin-1-yl]-6,23,37-trioxo-8,27,38-trioxa-24,34-diazahexacyclo[23.11.1.1^4,7.0^5,36.0^26,35.0^28,33]octatriaconta-1(36)2,4,9,19,21,25,28,30,32,34-undecaen-13-yl acetate] | 114 | 101 |  | > 10 |  |  | 0.62 | 0.08 | 1.37 |  |  | 0.037 |
| CO[C@H]1/C=C/O[C@@]2(C)Oc3c(C)c(O)c4c(=O)c(c5oc6cc(C)cc(N7CCN(CCn8ccnc8)CC7)c6nc-5c4c3C2=O)NC(=O)/C(C)=C\C=C\[C@H](C)[C@H](O)[C@@H](C)[C@@H](O)[C@@H](C)[C@H](OC(C)=O)[C@@H]1C [Compound 30e, (7S,9E,11S,12R,13S,14R,15R,16R,17S,18S,19E,21Z)-2,15,17-Trihydroxy-32-{4-[3-(1H-imidazol-1-yl)ethyl]piperazin-1-yl}-11-methoxy-3,7,12,14,16,18,22,30-octamethyl-6,23,37-trioxo-8,27,38-trioxa-24,34-diazahexacyclo[23.11.1.1^4,7.0^5,36.0^26,35.0^28,33]octatriaconta-1(36)2,4,9,19,21,25,28,30,32,34-undecaen-13-yl acetate] | 130 | 119 |  | > 10 |  |  |  |  | 3.11 |  |  | 0.084 |
| CO[C@H]1/C=C/O[C@@]2(C)Oc3c(C)c(O)c4c(=O)c(c5oc6cc(C)cc(N7CCN(C(=O)c8cccc(-n9ccnc9)c8)CC7)c6nc-5c4c3C2=O)NC(=O)/C(C)=C\C=C\[C@H](C)[C@H](O)[C@@H](C)[C@@H](O)[C@@H](C)[C@H](OC(C)=O)[C@@H]1C [Compound 30f, (7S,9E,11S,12R,13S,14R,15R,16R,17S,18S,19E,21Z)-2,15,17-Trihydroxy-32-{4-[3-(1H-imidazol-1-yl)benzoyl]piperazin-1-yl}-11-methoxy-3,7,12,14,16,18,22,30-octamethyl-6,23,37-trioxo-8,27,38-trioxa-24,34-diazahexacyclo[23.11.1.1^4,7.0^5,36.0^26,35.0^28,33]octatriaconta-1(36)2,4,9,19,21,25,28,30,32,34-undecaen-13-yl acetate] | 98 | 64 |  | > 10 |  |  |  |  | 1.63 |  |  | 0.044 |
| CO[C@H]1/C=C/O[C@@]2(C)Oc3c(C)c(O)c4c(=O)c(c5oc6cc(C)cc(N7CCN(C(=O)c8cccc(-c9ccccn9)c8)CC7)c6nc-5c4c3C2=O)NC(=O)/C(C)=C\C=C\[C@H](C)[C@H](O)[C@@H](C)[C@@H](O)[C@@H](C)[C@H](OC(C)=O)[C@@H]1C [Compound 30g, (7S,9E,11S,12R,13S,14R,15R,16R,17S,18S,19E,21Z)-2,15,17-Trihydroxy-11-methoxy-3,7,12,14,16,18,22,30-octamethyl-6,23,37-trioxo-32-{4-[3-(pyridin-2-yl)benzoyl]piperazin-1-yl}-8,27,38-trioxa-24,34-diazahexacyclo[23.11.1.1^4,7.0^5,36.0^26,35.0^28,33]octatriaconta-1(36)2,4,9,19,21,25,28,30,32,34-undecaen-13-yl acetate] | 99 | 61 |  | > 10 |  |  | <0.08 | < 0.02 | 0.96 |  |  | 0.026 |
| CO[C@H]1/C=C/O[C@@]2(C)Oc3c(C)c(O)c4c(=O)c(c5oc6cc(C)cc(N7CCN(C(=O)c8ccc9occc9c8)CC7)c6nc-5c4c3C2=O)NC(=O)/C(C)=C\C=C\[C@H](C)[C@H](O)[C@@H](C)[C@@H](O)[C@@H](C)[C@H](OC(C)=O)[C@@H]1C [Compound 30h, (7S,9E,11S,12R,13S,14R,15R,16R,17S,18S,19E,21Z)-32-[4-(1-Benzofuran-5-carbonyl)piperazin-1-yl]-2,15,17-trihydroxy-11-methoxy-3,7,12,14,16,18,22,30-octamethyl-6,23,37-trioxo-8,27,38-trioxa-24,34-diazahexacyclo[23.11.1.1^4,7.0^5,36.0^26,35.0^28,33]octatriaconta-1(36)2,4,9,19,21,25,28,30,32,34-undecaen-13-yl acetate] | 100 | 57 |  | > 10 |  |  | <0.08 | < 0.02 | 0.70 |  |  | 0.019 |

— patent US20250188092A1, “RIFAMYCIN ANALOGS” (THE REGENTS OF THE UNIVERSITY OF MICHIGAN, priority 2021, published 2025)
